Target: T1, GCN2 (Homo sapiens, UniProt Q9P2K8)
T1 construct: purchased Carma Biosciences (so in the source)
Assay: TR-FRET biochemical assay for inhibition of GCN2 activity
Details: 2 nM GCN2, 100 nM GFP-eIF2α, 150 μM ATP, 1.5 hours at 25° C.
Method: Exemplary compounds from the above Examples were tested for ability to inhibit GCN2 activity using a time resolved fluorescence energy transfer (TR-FRET) assay. Assay procedures and results are described below for Examples 12-105.
GCN2 protein was obtained from Carma Biosciences (cat #05-153). The protein was diluted in assay buffer (ThermoFisher Scientific, #PV6135), 2 mM dithiothreitol (DTT), to obtain a final concentration of 2 nM and 5 μL was plated in a 384-well white assay plate. Test compounds were serially diluted to 11 concentrations by 3-fold dilution in DMS0 and 10 nL of stock was plated into 384 well white assay plate. DMS0 was used as a vehicle control. GFP-eIF2α protein was obtained from ThermoFisher (cat #PV4809). The protein was diluted in assay buffer to a 2× concentration of 200 nM along with 300 μM ATP (final concentration of 100 nM GFP-eIF2α and 150 μM ATP) in the presence of 2 mM DTT and a […] was added to each well containing the GCN2 protein and test compound. The plate was incubated in the dark at 25° C. for 1.5 hours, shaking at 1250 rpm. Tb-anti P-eIF2α (ThermoFisher cat #PV4815) was diluted to a to a concentration of 1 nM in TR-FRET Dilution Buffer (ThermoFisher cat #PV3574). 10 μL of the Tb-anti P-eIF2a solution was added to the TR-FRET reaction. The plate was incubated in the dark for 2 h at 25° C. shaking at 600 rpm. The FRET signal from the plate was read on a Envision (PerkinElmer) plate reader: • Label 1: Excitation: 340 nm, bandwidth 30 nm; Emission: 495 nm, bandwidth 10 nm. Lag time: 100 μsec. Integration time: 400 μsec. Flashes: 30. • Label 2: Excitation: 340 nm, bandwidth 30 nm; Emission: 520 nm, bandwidth 25 nm. Lag time: 100 μsec. Integration time: 400 μsec. Flashes: 30
The data were analyzed using GraphPad Prism employing a 4-parameter sigmoidal curve fit.

T1 sequence (Q9P2K8 whole entry): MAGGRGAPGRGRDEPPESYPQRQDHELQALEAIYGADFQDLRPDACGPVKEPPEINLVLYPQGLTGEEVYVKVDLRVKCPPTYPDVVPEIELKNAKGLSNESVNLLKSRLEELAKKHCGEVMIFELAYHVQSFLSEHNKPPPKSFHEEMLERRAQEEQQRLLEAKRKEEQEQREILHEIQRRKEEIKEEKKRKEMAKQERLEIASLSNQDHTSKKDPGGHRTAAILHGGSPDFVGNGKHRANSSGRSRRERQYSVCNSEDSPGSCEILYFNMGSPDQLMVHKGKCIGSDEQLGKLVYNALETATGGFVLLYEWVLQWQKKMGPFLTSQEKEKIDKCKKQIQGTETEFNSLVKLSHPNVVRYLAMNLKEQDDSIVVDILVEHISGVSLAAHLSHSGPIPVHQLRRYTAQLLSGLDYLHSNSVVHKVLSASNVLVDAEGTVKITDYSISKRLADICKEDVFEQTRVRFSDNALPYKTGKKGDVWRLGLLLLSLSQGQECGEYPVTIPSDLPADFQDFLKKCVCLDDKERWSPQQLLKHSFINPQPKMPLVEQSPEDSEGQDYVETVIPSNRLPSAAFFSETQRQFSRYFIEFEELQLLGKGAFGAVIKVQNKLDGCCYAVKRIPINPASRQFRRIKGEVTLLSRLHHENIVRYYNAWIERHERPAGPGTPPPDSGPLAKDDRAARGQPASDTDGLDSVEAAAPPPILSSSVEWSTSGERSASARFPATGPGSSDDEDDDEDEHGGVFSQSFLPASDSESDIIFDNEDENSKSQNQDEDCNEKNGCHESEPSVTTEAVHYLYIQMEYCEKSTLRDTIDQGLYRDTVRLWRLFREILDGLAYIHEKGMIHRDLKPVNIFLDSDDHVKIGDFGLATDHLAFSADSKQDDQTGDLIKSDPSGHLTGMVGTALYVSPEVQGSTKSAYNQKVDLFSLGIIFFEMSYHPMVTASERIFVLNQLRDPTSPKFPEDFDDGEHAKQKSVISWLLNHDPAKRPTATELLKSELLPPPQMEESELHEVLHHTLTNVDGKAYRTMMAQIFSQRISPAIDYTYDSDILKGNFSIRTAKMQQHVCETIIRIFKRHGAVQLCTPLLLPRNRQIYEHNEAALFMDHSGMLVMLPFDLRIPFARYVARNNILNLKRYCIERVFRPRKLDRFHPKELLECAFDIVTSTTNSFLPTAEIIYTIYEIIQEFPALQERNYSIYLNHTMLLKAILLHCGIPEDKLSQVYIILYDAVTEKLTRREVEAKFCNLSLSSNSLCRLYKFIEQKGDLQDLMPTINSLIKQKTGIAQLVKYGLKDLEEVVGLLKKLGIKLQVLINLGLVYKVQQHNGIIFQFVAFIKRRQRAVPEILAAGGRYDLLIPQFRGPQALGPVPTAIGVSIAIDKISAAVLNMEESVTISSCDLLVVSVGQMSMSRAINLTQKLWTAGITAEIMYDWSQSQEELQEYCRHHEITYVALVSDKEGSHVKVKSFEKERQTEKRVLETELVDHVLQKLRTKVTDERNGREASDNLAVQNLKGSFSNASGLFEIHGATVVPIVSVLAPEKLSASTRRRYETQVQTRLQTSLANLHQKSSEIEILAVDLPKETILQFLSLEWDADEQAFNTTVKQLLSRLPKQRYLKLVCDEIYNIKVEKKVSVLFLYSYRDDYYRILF

COc1ncc(Cl)cc1S(=O)(=O)Nc1ncc(F)c(COc2cnc3[nH]nc(C)c3c2)c1Cl [Compound 79, 5-chloro-N-[3-chloro-5-fluoro-4-[([3-methyl-1H-pyrazolo[3,4-b]pyridin-5-yl]oxy)methyl]pyridin-2-yl]-2-methoxypyridine-3-sulfonamide]
IC50: < 50 nM

COc1ncc(F)cc1S(=O)(=O)Nc1ccc(F)c(COc2cnc3[nH]nc(-c4ccccc4)c3c2)c1F [Compound 84, N-[2,4-difluoro-3-[([3-phenyl-1H-pyrazolo[3,4-b]pyridin-5-yl]oxy)methyl]phenyl]-5-fluoro-2-methoxypyridine-3-sulfonamide]
IC50: < 50 nM

CNc1nccn2c(CCc3c(F)ccc(NS(=O)(=O)c4cc(Cl)cnc4OC)c3F)cnc12 [Compound 31, 5-chloro-N-(2,4-difluoro-3-(2-(8-(methylamino)imidazo[1,2-a]pyrazin-3-yl)ethyl)phenyl)-2-methoxypyridine-3-sulfonamide]
IC50: < 50 nM

COc1ncc(Cl)cc1S(=O)(=O)Nc1ncc(F)c(COc2cnc3[nH]nc(C)c3c2)c1F [Compound 65, 5-chloro-N-[3,5-difluoro-4-[([3-methyl-1H-pyrazolo[3,4-b]pyridin-5-yl]oxy)methyl]pyridin-2-yl]-2-methoxypyridine-3-sulfonamide]
IC50: < 50 nM

COc1ncc(F)cc1S(=O)(=O)Nc1ccc(F)c(COc2cnc3[nH]nc(CC(F)F)c3c2)c1F [Compound 75, N-[3-([[3-(2,2-difluoroethyl)-1H-pyrazolo[3,4-b]pyridin-5-yl]oxy]methyl)-2,4-difluorophenyl]-5-fluoro-2-methoxypyridine-3-sulfonamide]
IC50: < 50 nM

COc1ncc(F)cc1S(=O)(=O)Nc1ccc(F)c(COc2cnc3[nH]nc(C)c3c2)c1Cl [Compound 61, N-[2-chloro-4-fluoro-3-[([3-methyl-1H-pyrazolo[3,4-b]pyridin-5-yl]oxy)methyl]phenyl]-5-fluoro-2-methoxypyridine-3-sulfonamide]
IC50: < 50 nM

COc1ncc(Cl)cc1S(=O)(=O)Nc1ccc(F)c(CCc2cnc3[nH]ncc3c2)c1F [Compound 7, 5-chloro-N-[2,4-difluoro-3-(2-[1H-pyrazolo[3,4-b]pyridin-5-yl]ethyl)phenyl]-2-methoxypyridine-3-sulfonamide]
IC50: < 50 nM

COc1ncc(F)cc1S(=O)(=O)Nc1ccc(F)c(COc2cnc3[nH]nc(C)c3c2C2CCCC2)c1F [Compound 92, N-(3-(((4-cyclopentyl-3-methyl-1H-pyrazolo[3,4-b]pyridin-5-yl)oxy)methyl)-2,4-difluorophenyl)-5-fluoro-2-methoxypyridine-3-sulfonamide]
IC50: 500 to 1000 nM

COc1ncc(Cl)cc1S(=O)(=O)Nc1ccc(F)c(CCc2cc3cn[nH]c3cn2)c1F [Compound 13, 5-chloro-N-[2,4-difluoro-3-(2-[1H-pyrazolo[3,4-c]pyridin-5-yl]ethyl)phenyl]-2-methoxypyridine-3-sulfonamide]
IC50: > 1000 nM

COc1ncc(C#N)cc1S(=O)(=O)Nc1ccc(F)c(OCc2cnc3[nH]nc(C)c3c2)c1F [Compound 48, 5-cyano-N-(2,4-difluoro-3-((3-methyl-1H-pyrazolo[3,4-b]pyridin-5-yl)methoxy)phenyl)-2-methoxypyridine-3-sulfonamide]
IC50: 50 to 500 nM

CCc1n[nH]c2ncc(OCc3c(F)ccc(NS(=O)(=O)c4cc(F)cnc4C)c3F)cc12 [Compound 47, N-[3-[([3-ethyl-1H-pyrazolo[3,4-b]pyridin-5-yl]oxy)methyl]-2,4-difluorophenyl]-5-fluoro-2-methylpyridine-3-sulfonamide]
IC50: < 50 nM

CCc1n[nH]c2ncc(OCc3c(F)ccc(NS(=O)(=O)c4cc(Cl)cnc4OC)c3F)cc12 [Compound 40, 5-chloro-N-[3-[([3-ethyl-1H-pyrazolo[3,4-b]pyridin-5-yl]oxy)methyl]-2,4-difluorophenyl]-2-methoxypyridine-3-sulfonamide]
IC50: < 50 nM

COc1ncc(Cl)cc1S(=O)(=O)Nc1ccc(F)c(CCc2cnc3[nH]ccc3c2)c1F [Compound 12, 5-chloro-N-[2,4-difluoro-3-(2-[1H-pyrrolo[2,3-b]pyridin-5-yl]ethyl)phenyl]-2-methoxypyridine-3-sulfonamide]
IC50: < 50 nM

N#Cc1cc(C(F)(F)F)cc(S(=O)(=O)Nc2ccc(F)c(CCc3cnc4[nH]ncc4c3)c2F)c1 [Compound 16, 3-cyano-N-[2,4-difluoro-3-(2-[1H-pyrazolo[3,4-b]pyridin-5-yl]ethyl)phenyl]-5-(trifluoromethyl)benzenesulfonamide]
IC50: 50 to 500 nM

Cc1ncc(F)cc1S(=O)(=O)Nc1ccc(F)c(COc2cnc3[nH]nc(C(C)C)c3c2)c1F [Compound 54, N-[2,4-difluoro-3-[([3-isopropyl-1H-pyrazolo[3,4-b]pyridin-5-yl]oxy)methyl]phenyl]-5-fluoro-2-methylpyridine-3-sulfonamide]
IC50: < 50 nM

COc1ncc(Cl)cc1S(=O)(=O)Nc1ccnc(COc2cnc3[nH]nc(C)c3c2)c1F [Compound 64, 5-chloro-N-[3-fluoro-2-[([3-methyl-1H-pyrazolo[3,4-b]pyridin-5-yl]oxy)methyl]pyridin-4-yl]-2-methoxypyridine-3-sulfonamide]
IC50: < 50 nM

COc1ncc(Cl)cc1S(=O)(=O)Nc1ccc(F)c(COc2cnc3[nH]nc(C)c3c2)n1 [Compound 68, 5-chloro-N-[5-fluoro-6-[([3-methyl-1H-pyrazolo[3,4-b]pyridin-5-yl]oxy)methyl]pyridin-2-yl]-2-methoxypyridine-3-sulfonamide]
IC50: 50 to 500 nM

COc1ncc(Cl)cc1S(=O)(=O)Nc1ccc(F)c(COc2cnc3cnn(C)c3c2)c1F [Compound 42, 5-chloro-N-[2,4-difluoro-3-[([1-methylpyrazolo[4,3-b]pyridin-6-yl]oxy)methyl]phenyl]-2-methoxypyridine-3-sulfonamide]
IC50: < 50 nM

COc1ncc(F)cc1S(=O)(=O)Nc1ccc(F)c(COc2cnc3[nH]nc(C)c3c2C(C)C)c1F [Compound 88, N-[2,4-difluoro-3-[([4-isopropyl-3-methyl-1H-pyrazolo[3,4-b]pyridin-5-yl]oxy)methyl]phenyl]-5-fluoro-2-methoxypyridine-3-sulfonamide]
IC50: > 1000 nM

COc1ncc(F)cc1S(=O)(=O)Nc1ccc(F)c(COc2cnc3[nH]nc(C)c3c2)n1 [Compound 67, 5-fluoro-N-[5-fluoro-6-[([3-methyl-1H-pyrazolo[3,4-b]pyridin-5-yl]oxy)methyl]pyridine-2-yl]-2-methoxypyridine-3-sulfonamide]
IC50: > 1000 nM

COc1ncc(F)cc1S(=O)(=O)Nc1ccc(F)c(COc2cnc3c(c2)C2(CC2)C(=O)N3)c1F [Compound 72, N-[2,4-difluoro-3-([2-oxo-1H-spiro[cyclopropane-1,3-pyrrolo[2,3-b]pyridin]-5-yloxy]methyl)phenyl]-5-fluoro-2-methoxypyridine-3-sulfonamide]
IC50: < 50 nM

COc1ncc(Cl)cc1S(=O)(=O)Nc1ccc(F)c(C(C)Oc2cnc3[nH]ncc3c2)c1F (stereo not drawn) [Compound 25, 5-chloro-N-[2,4-difluoro-3-(1-[1H-pyrazolo[3,4-b]pyridin-5-yloxy]ethyl)phenyl]-2-methoxypyridine-3-sulfonamide]
IC50: 500 to 1000 nM

CCn1ncc2ncc(CCc3c(F)ccc(NS(=O)(=O)c4cc(F)cnc4OC)c3F)cc21 [Compound 34, N-[3-(2-[1-ethylpyrazolo[4,3-b]pyridin-6-yl]ethyl)-2,4-difluorophenyl]-5-fluoro-2-methoxypyridine-3-sulfonamide]
IC50: < 50 nM

COc1ncc(Cl)cc1S(=O)(=O)Nc1ccc(F)c(COc2cnc3[nH]ncc3c2OC)c1F [Compound 24, 5-chloro-N-[2,4-difluoro-3-[([4-methoxy-1H-pyrazolo[3,4-b]pyridin-5-yl]oxy)methyl]phenyl]-2-methoxypyridine-3-sulfonamide]
IC50: < 50 nM

COc1ncc(F)cc1S(=O)(=O)Nc1ccc(F)c(CCc2cnc3[nH]ncc3c2)c1F [Compound 15, N-[2,4-difluoro-3-(2-[1H-pyrazolo[3,4-b]pyridin-5-yl]ethyl)phenyl]-5-fluoro-2-methoxypyridine-3-sulfonamide]
IC50: < 50 nM

COc1ncc(F)cc1S(=O)(=O)Nc1ccc(F)c(COc2cnc3[nH]nc(C#N)c3c2)c1F [Compound 73, N-(3-(((3-cyano-1H-pyrazolo[3,4-b]pyridin-5-yl)oxy)methyl)-2,4-difluorophenyl)-5-fluoro-2-methoxypyridine-3-sulfonamide]
IC50: < 50 nM

COc1ncc(Cl)cc1S(=O)(=O)Nc1ccc(F)c(COc2cnc3[nH]ncc3c2C#N)c1F [Compound 28, 5-chloro-N-[3-[([4-cyano-1H-pyrazolo[3,4-b]pyridin-5-yl]oxy)methyl]-2,4-difluorophenyl]-2-methoxypyridine-3-sulfonamide]
IC50: < 50 nM

Reference: patent US20240150345A1, “GCN2 MODULATING COMPOUNDS AND USES THEREOF” (HiberCell, Inc., priority 2021, published 2024)
